Where a chain is given by its changes, count along the chain named.
Key:
Experiment in all cases: microscale thermophoresis
Type in all cases: binding
OsNAT9 (OsNAT9-GFP) [1] = molecular target: T1, OsNAT9 (OsNAT9-GFP) (Oryza sativa, UniProt Q10ET9, G349A)
T1 sequence (Q10ET9 1-527 G349A): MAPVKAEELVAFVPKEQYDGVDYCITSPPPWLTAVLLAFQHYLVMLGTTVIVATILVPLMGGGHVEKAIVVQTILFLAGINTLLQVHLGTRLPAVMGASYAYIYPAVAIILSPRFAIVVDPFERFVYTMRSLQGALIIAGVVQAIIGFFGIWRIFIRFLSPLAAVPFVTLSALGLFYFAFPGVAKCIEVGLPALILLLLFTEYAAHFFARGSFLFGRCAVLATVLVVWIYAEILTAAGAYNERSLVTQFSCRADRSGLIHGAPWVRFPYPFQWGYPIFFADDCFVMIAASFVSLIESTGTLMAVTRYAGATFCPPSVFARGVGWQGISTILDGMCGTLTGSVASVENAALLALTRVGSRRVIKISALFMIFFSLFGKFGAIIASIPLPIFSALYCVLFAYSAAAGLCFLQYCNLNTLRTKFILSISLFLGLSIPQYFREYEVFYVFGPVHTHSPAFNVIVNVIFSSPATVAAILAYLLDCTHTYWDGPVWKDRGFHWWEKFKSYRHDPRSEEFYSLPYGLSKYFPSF

OsNAT9 (OsNAT9-GFP) [2] = molecular target: T2, OsNAT9 (OsNAT9-GFP) (Oryza sativa, UniProt Q10ET9, S344A)
T2 sequence (Q10ET9 1-527 S344A): T1 sequence (Q10ET9 1-527 G349A) with S344A, A349G

OsNAT9 (OsNAT9-GFP) [3] = molecular target: T3, OsNAT9 (OsNAT9-GFP) (Oryza sativa, UniProt Q10ET9)
T3 sequence (Q10ET9 1-527): T1 sequence (Q10ET9 1-527 G349A) with A349G

OsNAT9 (OsNAT9-GFP) [4] = molecular target: T4, OsNAT9 (OsNAT9-GFP) (Oryza sativa, UniProt Q10ET9, E346A)
T4 sequence (Q10ET9 1-527 E346A): T1 sequence (Q10ET9 1-527 G349A) with E346A, A349G

| Kd (OsNAT9 (OsNAT9-GFP) [1]) [pM] | Kd (OsNAT9 (OsNAT9-GFP) [2]) [pM] | Kd (OsNAT9 (OsNAT9-GFP) [3]) [pM] | Kd (OsNAT9 (OsNAT9-GFP) [4]) [pM] | SMILES |
| --- | --- | --- | --- | --- |
| 550 ± 530 | 101000 ± 27600 | 280 ± 230 | 80700 ± 6060 | O=C1O[C@H]([C@@H](O)CO)C(O)=C1O [AsA, ascorbic acid] |
|  |  | 390 ± 110 |  | O=c1[nH]c(=O)c2[nH]cnc2[nH]1 [xanthine] |
